Where two headings read alike, the source gives them in different places.

The results in this text go back to patent US10273237B2, “Imidazopyridazine compounds useful as modulators of IL-12, IL-23 and/or IFN-α responses” (BRISTOL-MYERS SQUIBB COMPANY, priority 2013, dated 2019).

Test [1] concerns IFNα-stimulated Kit225 T cells with STAT-dependent luciferase reporter. Briefly: Kit225 T cell assay, STAT-dependent luciferase reporter, IFNα stimulated. The format is cell-based, human. Particulars: 5-6 hours, read-out: IFNa Kit225 Reporter, LE (IC50). Here is the method: (§1) Kit225 T cells with a stably-integrated STAT-dependent luciferase reporter were plated in RPMI (GIBCO) containing 10% heat-inactivated FBS (GIBCO) and 100 U/mL PenStrep (GIBCO). The cells were then stimulated with either 20 ng/mL human recombinant IL-23 or 200 U/mL human recombinant IFNα (PBL InterferonSource) for 5-6 hours. Luciferase expression was measured using the STEADY-GLO® Luciferase Assay System (PROMEGA®) according to the manufacturer's instructions.
In general terms: A reporter such as luciferase makes a cellular process visible.

Test [2] deals with IL-23-stimulated Kit225 T cells with STAT-dependent luciferase reporter. In words: Kit225 T cell assay, STAT-dependent luciferase reporter, IL-23 stimulated. The format is cell-based, human. Particulars: read-out: IL-23 Kit225 Reporter, LE (IC50). Here is the method:
as §1

[3] abbreviates: 200 U/mL human recombinant IFNα.
[4] abbreviates: 20 ng/mL human recombinant IL-23, 5-6 hours.
Setting [5] is: Homo sapiens, KIT225, 200 U/mL human recombinant IFNα.
Where [6] appears, read: Homo sapiens, KIT225, 20 ng/mL human recombinant IL-23, 5-6 hours.

For the molecule `CNc1cc(Nc2cccn(-c3ncccc3F)c2=O)nn2c(C(=O)NC3CC3)cnc12` [Example 41], the figures for the IC50 in test [1] (setting [3]) and in test [2] (setting [4]) were 60 nM and 80 nM, respectively.
As to `CNc1cc(Nc2cc(F)cn(CC(C)(C)O)c2=O)nn2c(C(=O)NC3CC3)cnc12` [Example 121], the IC50 (as a rule, the concentration at which inhibition is half-maximal) in test [1] (setting [3]) worked out at 290 nM; in test [2] (setting [4]), 590 nM.
Consider `CNc1cc(Nc2cccn(-c3cccc(C(C)(C)O)n3)c2=O)nn2c(C(=O)NC3CC3)cnc12` [Example 81], for which the IC50 in test [1] (setting [3]) was found to be 120 nM; in test [2] (setting [4]), 180 nM.
Take `CNc1cc(Nc2cccn(-c3ccc(C(F)F)cc3)c2=O)nn2c(C(=O)NCC(C)(CO)CO)cnc12` [Example 19]: the IC50 in test [1] (setting [3]) was 400 nM; in test [2] (setting [4]) it was 330 nM.
As for `CNc1cc(Nc2cccn(C3(C)CC3)c2=O)nn2c(C(=O)NC3CC3)cnc12` [Example 161], the IC50 in test [1] (setting [3]) came out at 340 nM; in test [2] (setting [4]), 710 nM.
`CNc1cc(Nc2cccn(-c3nccc(C(F)(F)F)n3)c2=O)nn2c(C(=O)NC3CCC3)cnc12` [Example 5, N-Cyclobutyl-8-(methylamino)-6-((2-oxo-1-(4-(trifluoromethyl)pyrimidin-2-yl)-1,2-dihydropyridin-3-yl)amino)imidazo[1,2-b]pyridazine-3-carboxamide]: the IC50 in test [1] (setting [5]) and in test [2] (setting [6]) was 150 nM in each case.
For `CNc1cc(Nc2cncn(-c3ccc(C)nn3)c2=O)nn2c(C(=O)N[C@@H]3C[C@@H]3F)cnc12` [Example 80], the IC50 in test [1] (setting [3]) came to 330 nM; in test [2] (setting [4]), 1740 nM.
As to `CNc1cc(Nc2cccn(-c3ncccc3F)c2=O)nn2c(C(=O)N[C@@H]3C[C@@H]3F)cnc12` [Example 42], the IC50 in test [1] (setting [3]) was found to be 20 nM; in test [2] (setting [4]) it was 50 nM.
Regarding `CCC(C)NC(=O)c1cnc2c(NC)cc(Nc3cccn(-c4ccc(C)nn4)c3=O)nn12` (single isomer, unassigned) [Example 75], the IC50 stood at 130 nM in test [1] (setting [3]) and 190 nM in test [2] (setting [4]).
In the case of `CNc1cc(Nc2cccn(C3CCOC3)c2=O)nn2c(C(=O)NC3CC3)cnc12` (centres unmarked) [Example 220], the IC50 was 280 nM in test [1] (setting [3]) and 170 nM in test [2] (setting [4]).
The corresponding values for `CNc1cc(Nc2cccn(-c3ccc(C)nn3)c2=O)nn2c(C(=O)NCC(C)C)cnc12` [Example 200] are 260 nM and 110 nM.
As to `CNc1cc(Nc2cccn(-c3ncc(F)cn3)c2=O)nn2c(C(=O)N[C@@H]3C[C@@H]3F)cnc12` [Example 174], the results for the IC50 in test [1] (setting [3]) and in test [2] (setting [4]) were 40 nM and 50 nM, respectively.
`CNc1cc(Nc2cccn(-c3ccc(F)cn3)c2=O)nn2c(C(=O)N[C@@H]3C[C@@H]3F)cnc12` [Example 37]: the IC50 in test [1] (setting [3]) was found to be 30 nM; in test [2] (setting [4]), 20 nM.
Take `CNc1cc(Nc2cccn(-c3ccn(C)n3)c2=O)nn2c(C(=O)N[C@@H]3C[C@@H]3F)cnc12` [Example 169]: the IC50 in test [1] (setting [3]) was determined as 40 nM; in test [2] (setting [4]) it was 80 nM.
For the molecule `CNc1cc(Nc2cccn(-c3ccc(OC)nn3)c2=O)nn2c(C(=O)N[C@@H]3C[C@@H]3F)cnc12` [compound 261], the IC50 in test [1] (setting [5]) is 20 nM; in test [2] (setting [6]) it was 10 nM.
Turning to `CCC(C)NC(=O)c1cnc2c(NC)cc(Nc3cccn(C)c3=O)nn12` (single isomer, unassigned) [Example 73], the values for the IC50 in test [1] (setting [3]) and in test [2] (setting [4]) were 120 nM and 190 nM, respectively.
For the molecule `CNc1cc(Nc2cccn(-c3cc(C)n(C)n3)c2=O)nn2c(C(=O)N[C@@H]3C[C@@H]3F)cnc12` [Example 160], the IC50 amounted to 30 nM in test [1] (setting [3]) and 50 nM in test [2] (setting [4]).
As to `CNc1cc(Nc2cc(Cl)cn(C)c2=O)nn2c(C(=O)NC3(C#N)CCC3)cnc12` [Example 43], the results for the half-maximal inhibitory concentration (IC50) in test [1] (setting [3]) and in test [2] (setting [4]) were 110 nM and 590 nM, respectively.
As to `CNc1cc(Nc2cccn(C3CC3)c2=O)nn2c(C(=O)NC3CC3)cnc12` [Example 44], the IC50 is 130 nM in test [1] (setting [3]) and 380 nM in test [2] (setting [4]).
For `CNc1cc(Nc2cc(F)cn(-c3ccccn3)c2=O)nn2c(C(=O)NC3CC3)cnc12` [Example 149], the IC50 in test [1] (setting [3]) was determined as 60 nM; in test [2] (setting [4]), 70 nM.
With `CNc1cc(Nc2cccn(-c3ccc(C)nn3)c2=O)nn2c(C(=O)NCCF)cnc12` [Example 102], the half-maximal inhibitory concentration (IC50) in test [1] (setting [3]) and in test [2] (setting [4]) was 260 nM in each case.
`CNc1cc(Nc2cccn(-c3ccn(C)n3)c2=O)nn2c(C(=O)NC3CCC3)cnc12` [Example 159]: the IC50 in test [1] (setting [3]) stood at 40 nM; in test [2] (setting [4]) it was 30 nM.
`CNc1cc(Nc2cccn(-c3nnc(C)s3)c2=O)nn2c(C(=O)N[C@@H]3C[C@@H]3F)cnc12` [Example 195]: the IC50 in test [1] (setting [3]) was 60 nM; in test [2] (setting [4]), 110 nM.
The corresponding values for `CNc1cc(Nc2cccn(-c3ccc(C(C)O)cc3)c2=O)nn2c(C(=O)N[C@@H]3C[C@@H]3F)cnc12` (some centres unmarked) [Example 141] are 180 nM and 160 nM.
Regarding `CNc1cc(Nc2cccn(-c3ccccc3)c2=O)nn2c(C(=O)N[C@@H]3C[C@@H]3F)cnc12` [Example 191], the IC50 in test [1] (setting [3]) was 20 nM; in test [2] (setting [4]), 40 nM.
As to `CNc1cc(Nc2cccn(-c3ccc(F)cc3)c2=O)nn2c(C(=O)NCC3(CO)CC3)cnc12` [Example 29], the IC50 came out at 200 nM in test [1] (setting [3]) and 340 nM in test [2] (setting [4]).
The corresponding values for `CNc1cc(Nc2cccn(C)c2=O)nn2c(C(=O)NC(C)C#N)cnc12` (centres unmarked) [Example 129] are 160 nM and 440 nM.
Take `CNc1cc(Nc2cccn(C3CCCCC3)c2=O)nn2c(C(=O)NC3CC3)cnc12` [Example 226]: the IC50 in test [1] (setting [3]) was 90 nM; in test [2] (setting [4]), 240 nM.
As to `CNc1cc(Nc2cccn(-c3cccc(C)n3)c2=O)nn2c(C(=O)N[C@@H]3C[C@@H]3F)cnc12` [Example 49], the concentration for half-maximal inhibition (IC50) was determined as 50 nM in test [1] (setting [3]) and 20 nM in test [2] (setting [4]).
For `CNc1cc(Nc2cc(F)cn(C)c2=O)nn2c(C(=O)NCC3(CO)CC3)cnc12` [Example 30], the IC50 in test [1] (setting [3]) was determined as 200 nM; in test [2] (setting [4]) it was 390 nM.
In the case of `CCOc1ccc(-n2cccc(Nc3cc(NC)c4ncc(C(=O)N[C@@H]5C[C@@H]5F)n4n3)c2=O)nn1` [compound 260], the IC50 in test [1] (setting [5]) and in test [2] (setting [6]) was 10 nM in each case.
In the case of `CNc1cc(Nc2cccn(-c3ccc(C)nn3)c2=O)nn2c(C(=O)NC3CCC3)cnc12` [Example 64], the values for the IC50 in test [1] (setting [3]) and in test [2] (setting [4]) were 30 nM and 40 nM, respectively.
As for `CNc1cc(Nc2ccnn(-c3cccc(C#N)c3)c2=O)nn2c(C(=O)N[C@@H]3C[C@@H]3F)cnc12` [Example 196], the half-maximal inhibitory concentration (IC50) is 40 nM in test [1] (setting [3]) and 160 nM in test [2] (setting [4]).
The corresponding values for `CNc1cc(Nc2cccn(-c3ccc(F)nc3)c2=O)nn2c(C(=O)N[C@@H]3C[C@@H]3F)cnc12` [Example 40] are 50 nM and 160 nM.
On to `CNc1cc(Nc2cccn(C3CCC(O)CC3)c2=O)nn2c(C(=O)NC3CC3)cnc12` (centres unmarked) [Example 227], for which the IC50 was determined as 370 nM in test [1] (setting [3]) and 620 nM in test [2] (setting [4]).
In the case of `CNc1cc(Nc2cccn(C)c2=O)nn2c(C(=O)NCC(C)(C)CO)cnc12` [Example 9, N-(3-Hydroxy-2,2-dimethylpropyl)-6-((1-methyl-2-oxo-1,2-dihydropyridin-3-yl)amino)-8-(methylamino)imidazo[1,2-b]pyridazine-3-carboxamide], the figures for the IC50 in test [1] (setting [5]) and in test [2] (setting [6]) were 40 nM and 120 nM, respectively.
Consider `CNc1cc(Nc2ccnn(-c3ccccc3)c2=O)nn2c(C(=O)NC3CC3)cnc12` [Example 179], for which the IC50 came to 570 nM in test [1] (setting [3]) and 480 nM in test [2] (setting [4]).
The corresponding values for `CNc1cc(Nc2cccn(-c3ccc(C)nn3)c2=O)nn2c(C(=O)NC(C)C)cnc12` [Example 97] are 110 nM and 190 nM.
For the molecule `CNc1cc(Nc2cccn(-c3ccccc3)c2=O)nn2c(C(=O)NC(CO)CCl)cnc12` (centres unmarked) [Example 4, N-(1-Chloro-3-hydroxypropan-2-yl)-8-(methylamino)-6-(2-oxo-1-phenyl-1,2-dihydropyridin-3-ylamino)imidazo[1,2-b]pyridazine-3-carboxamide], the results for the half-maximal inhibitory concentration (IC50) in test [1] (setting [5]) and in test [2] (setting [6]) were 320 nM and 520 nM, respectively.
Turning to `CNc1cc(Nc2cccn(-c3ccn(C)n3)c2=O)nn2c(C(=O)NC3CC3)cnc12` [Example 158], the IC50 in test [1] (setting [3]) turned out to be 100 nM; in test [2] (setting [4]), 130 nM.
As for `CNc1cc(Nc2cccn(C)c2=O)nn2c(C(=O)Nc3ccccc3)cnc12` [Example 212], the values for the half-maximal inhibitory concentration (IC50) in test [1] (setting [3]) and in test [2] (setting [4]) were 2480 nM and 110 nM, respectively.
Consider `CNc1cc(Nc2cccn(C)c2=O)nn2c(C(=O)NC3CCCCC3C)cnc12` (centres unmarked) [Example 215], for which the IC50 in test [1] (setting [3]) stood at 300 nM; in test [2] (setting [4]), 190 nM.
On to `CNc1cc(Nc2cccn(-c3ccccn3)c2=O)nn2c(C(=O)N[C@@H]3CCOC3)cnc12` [Example 62], for which the IC50 in test [1] (setting [3]) amounted to 270 nM; in test [2] (setting [4]), 640 nM.
Regarding `CNc1cc(Nc2cccn(-c3ccc(C(C)O)cc3)c2=O)nn2c(C(=O)NC3CCC3)cnc12` (centres unmarked) [Example 142], the IC50 in test [1] (setting [3]) turned out to be 90 nM; in test [2] (setting [4]), 70 nM.
Consider `CNc1cc(Nc2cccn(-c3ccn(C4CC4)n3)c2=O)nn2c(C(=O)NC3CCC3)cnc12` [Example 166], for which the IC50 in test [1] (setting [3]) amounted to 50 nM; in test [2] (setting [4]) it was 290 nM.
As to `CNc1cc(Nc2cccn(-c3cnc(C(=O)N(C)C)cn3)c2=O)nn2c(C(=O)N[C@@H]3C[C@@H]3F)cnc12` [Example 256, 6-((1-(5-(Dimethylcarbamoyl)pyrazin-2-yl)-2-oxo-1,2-dihydropyridin-3-yl)amino)-N-((1R,2S)-2-fluorocyclopropyl)-8-(methylamino)imidazo[1,2-b]pyridazine-3-carboxamide], the figures for the IC50 in test [1] (setting [5]) and in test [2] (setting [6]) were 9.8 nM and 13 nM, respectively.
